Results taken from patent US20190070170A1, “METHOD OF S[…]-1” (Macau University of Science and Technology, priority 2017, published 2019).

Legend:
Assay type in all cases: cell-based
COX-2 [1] = test: COX-2 protein expression in LPS-activated rat peritoneal macrophages (western blotting); settings: SIN or DEX 1 h, LPS 24 h
Procedure: (§1) Sprague-Dawley (SD) rats from the University of Hong Kong were housed in cages with free access to food and water. Peritoneal macrophages of SD rats were isolated as described in Liu J. et al., Pharmacological research 2016, 111:303-315. Briefly, untreated rats were sacrificed and after laparotomy, about 50 ml cold sterile Hank's balanced salt solution (HBSS) was used to lavage the peritoneal cavity at twice, and then the peritoneal lavage fluid was collected and centrifuged at 1500 rpm for 10 min. The cell pellets was suspended at a density 1.5×10^6 cells/ml in pre-hearted DMEM medium with 10% heat-inactivated FBS, penicillin G (100 units/ml), streptomycin ([…]), and L-glutamine (2 mM), followed by seeding in 6-well plates at a density of 4.5×10^6 cells and incubation for 2 h. Then the medium were discarded to remove the non-adherent cells. The adherent cells were further washed for two times with pre-heated DMEM medium to remove floating cells. Next, cells were pre-treated with various concentration of SIN for 1 h, followed by stimulation with LPS (1 μg/ml).
(§2) Whole-cell and nuclear proteins were obtained using RIPA lysis buffer (CST, Boston, Mass., USA) and Nuclear and Cytoplasmic Extraction Reagents kit from Thermo Scientific (Asheville, N.C., USA), respectively. […] The levels of protein expression were measured using Odyssey v3.0 software from Li-COR (Lincoln, Nebr., USA).

COX-2 [2] = test: COX-2 protein expression in IL-1β-stimulated A549 cells (western blotting); settings: IL-1β with SIN or DEX for 48 h
Procedure: RAW264.7 and A549 cell lines were obtained from American Type Culture Collection (ATCC, Manassas, Va., USA) and maintained in DMEM (RAW264.7) or 1640 (A549) medium containing 10% FBS (Gibco-BRL, Grand Island, N.Y., USA) and antibiotics at 37° C. in a humidified atmosphere containing 5% CO2. RAW264.7 cells were plated in 6-well plates at a density of 4×10^5 cells and incubated for 24 h, then the cells were pretreated with different concentrations of SIN for 1 h before stimulating with LPS (100 ng/ml). A549 cells were seeded in 6-well plates at a density of 1×10^5 cells and incubated for 24 h, followed by pretreatment with SIN. A549 cells were then stimulated by IL-1β (1 ng/ml).
Whole-cell and nuclear proteins were obtained using RIPA lysis buffer (CST, Boston, Mass., USA) and Nuclear and Cytoplasmic Extraction Reagents kit from Thermo Scientific (Asheville, N.C., USA), respectively. For immunoblotting, proteins from whole-cell, cytoplasm, nuclear, and microsomal fractions were separated on SDS-PAGE, then transferred onto a nitrocellulose membrane from GE Healthcare Life Sciences (Buckinghamshire, UK), and incubated with 5% skimmed milk at room temperature for 1 h. […] The levels of protein expression were measured using Odyssey v3.0 software from Li-COR (Lincoln, Nebr., USA).

TXA2 = TXA2 level in culture supernatants of LPS-activated rat peritoneal macrophages (ELISA); settings: LPS-stimulated rat peritoneal macrophages, culture supernatant
Procedure: as §1
(§3) RAW264.7 cells and rat peritoneal macrophages were seeded in a 96-well plate at density of 1.4×10^4 and 1.5×10^5 cells, respectively. […] The optical density was measured at 570 nm against a reference wavelength of 650 nm using a microplate UV/VIS spectrophotometer (Tecan, Mannedorf, Switzerland). […]

[3] = system: mitogen-activated protein kinase (MAPK); test: MAPK pathway (p-JNK, p-p38, p-ERK, p-c-Jun) in LPS-stimulated rat peritoneal macrophages (western blotting); settings: SIN 1 h, LPS 1 μg/ml 15 min or 1 h
Procedure: as §1, §2

C/EBPβ = C/EBPβ phosphorylation and nuclear translocation in LPS-stimulated rat peritoneal macrophages (western blotting, immunofluorescence); settings: SIN 1 h
Procedure: as §1
Whole-cell and nuclear proteins were obtained using RIPA lysis buffer (CST, Boston, Mass., USA) and Nuclear and Cytoplasmic Extraction Reagents kit from Thermo Scientific (Asheville, N.C., USA), respectively. […] The levels of protein expression were measured using Odyssey v3.0 software from Li-COR (Lincoln, Nebr., USA). […]

IL-6 = IL-6 level in LPS-stimulated rat peritoneal macrophages (ELISA); settings: pretreatment 1 h, LPS 1 μg/ml 24 h
Procedure: as §1, §3

SMILES: COC1=C[C@@H]2[C@@H]3Cc4ccc(OC)c(O)c4[C@]2(CCN3C)CC1=O [SIN, sinomenine]
- COX-2 protein expression (COX-2 [1]): did not suppress
- COX-2 protein expression (COX-2 [2]): did not suppress
- level of TXA2 (TXA2): no significant influence
- influence on MAPK pathway [3]: No observable effects
- LPS-induced phosphorylation of C/EBPβ (Ser105 and T235+T188) (C/EBPβ; LPS 30 min): inhibitory effects
- LPS-induced nuclear translocation of C/EBPβ (C/EBPβ; LPS 2 h): inhibitory effects
- IL-6 production (IL-6): significantly inhibited
